Measurements from ChEMBL document CHEMBL1131253, “A pyridoxine cyclic phosphate and its 6-azoaryl derivative selectively potentiate and antagonize activation of P2X1 receptors” (J Med Chem, 1998).

What was measured:
[1] = target: T1, P2X purinoceptor 3 (Rattus norvegicus, UniProt P49654); assay: Compound was tested in a functional ion channel assay of ATP-induced current at recombinant rat P2X3 receptor expressed in Xenopus oocytes.; assay type: cell-based, Oocyte
T1 sequence (P49654 whole entry): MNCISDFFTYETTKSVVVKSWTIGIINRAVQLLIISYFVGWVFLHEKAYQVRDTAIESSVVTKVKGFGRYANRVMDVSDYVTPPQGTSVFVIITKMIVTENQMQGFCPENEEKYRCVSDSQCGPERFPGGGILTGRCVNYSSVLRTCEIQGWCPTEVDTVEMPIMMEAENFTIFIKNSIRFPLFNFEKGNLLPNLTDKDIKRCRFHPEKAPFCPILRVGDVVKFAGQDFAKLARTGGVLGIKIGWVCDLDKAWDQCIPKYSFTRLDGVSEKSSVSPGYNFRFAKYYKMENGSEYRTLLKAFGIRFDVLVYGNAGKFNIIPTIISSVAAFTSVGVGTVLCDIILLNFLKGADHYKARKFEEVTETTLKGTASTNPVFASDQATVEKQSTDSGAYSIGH

[2] = target: T2, P2X purinoceptor 1 (Rattus norvegicus, UniProt P47824); assay: Compound was tested in a functional ion channel assay of ATP-induced current at recombinant rat P2X1 receptor expressed in Xenopus oocytes.; assay type: cell-based, Oocyte
T2 sequence (P47824 whole entry): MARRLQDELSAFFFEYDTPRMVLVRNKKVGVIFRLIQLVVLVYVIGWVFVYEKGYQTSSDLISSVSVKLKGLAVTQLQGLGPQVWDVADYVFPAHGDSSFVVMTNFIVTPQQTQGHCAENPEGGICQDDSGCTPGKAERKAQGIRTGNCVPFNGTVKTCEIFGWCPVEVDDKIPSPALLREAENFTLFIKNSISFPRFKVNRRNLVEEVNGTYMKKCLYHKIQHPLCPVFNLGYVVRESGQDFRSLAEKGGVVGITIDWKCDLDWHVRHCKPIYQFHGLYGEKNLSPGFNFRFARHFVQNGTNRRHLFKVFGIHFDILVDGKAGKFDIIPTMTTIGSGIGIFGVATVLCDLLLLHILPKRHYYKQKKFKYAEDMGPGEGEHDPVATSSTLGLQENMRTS

SMILES: Cc1nc(/N=N/c2cc(S(=O)(=O)O)ccc2S(=O)(=O)O)c2c(c1O)COP(=O)(O)OC2
- IC50 [1]: 58.3 µM
- IC50 [2]: 10200 nM

SMILES: Cc1ncc2c(c1O)COP(=O)(O)OC2
- EC50 [2]: 5.9 µM

SMILES: Cc1nc(/N=N/c2ccc(S(=O)(=O)O)cc2S(=O)(=O)O)c(COP(=O)(O)O)c(C=O)c1O
- IC50 [1]: 0.24 µM
- IC50 [2]: 98.5 nM

SMILES: Cc1nc(/N=N/c2cc(S(=O)(=O)O)ccc2S(=O)(=O)O)c(COP(=O)(O)O)c(C=O)c1O [ISOPPADS]
- IC50 [2]: 42.5 nM
